Results reported in patent publication US20240067632A1, “WEE1 Degrading Compounds and Uses Thereof” (Bristol-Myers Squibb Company, priority 2022, published 2024).

Biological target: T1, WEE1 (Homo sapiens, UniProt P30291+Q96SW2)
T1 construct: C-terminal ePL-tagged (DiscoverX, Fremont, CA) full-length WEE1 expression construct; expressed in transfected cells; host or cells: LentiX-HEK293T (Invitrogen), lentiviral transduction; co-expressing GSPT1-GN (G576N, lacking the first 158 amino acids)
Test: WEE1-ePL degradation assay (LentiX-WEE1-ePL-GSPT1-ND cells, InCELL Hunter luminescence, 4 h)
Format: cell-based
Conditions: 293T-LentiX WEE1-ePL cells; for DC50: read-out: 293T-LentiX WEE1-ePL Degradation 4 hr (EC50)
Procedure: To generate LentiX-WEE1-ePL-GSPT1-ND cells for the WEE1 degradation assay, LentiX-HEK293T (Invitrogen) were transduced by lentivirus with a C-terminal ePL-tagged (DiscoverX, Fremont, CA) full-length WEE1 expression construct. […] Cells were selected and maintained in complete DMEM media (DMEM, 10% Heat Inactivated FBS, 400 μg/mL Geneticin, and 1 μg/mL puromycin at 37 C and 5% CO2). Cells were passaged every 3-4 days by reseeding 1×10^6 cells in a T150 flask.
Cells were dispensed into 384-well white plates (Corning #3570, NY) that were pre-spotted with compounds using an acoustic dispenser (Echo acoustic transfer system, Beckman Coulter Life Sciences, Carlsbad, CA) as a 10-point dose-response curve with a 3-fold dilution starting at either 1 uM or 10 uM and including a DMSO control. Twenty-five microliters of media containing 2500 cells for LentiX-oeWEE1-ePL was dispensed per well. Assay plates were incubated at 37° C. with 5% CO2 for four hours (WEE1) After incubation, 25 μL of the InCELL Hunter™ Detection Reagent Working Solution (DiscoverX, Fremont, CA) was added to each well and incubated at room temperature for 30 minutes protected from light. After 30 minutes, luminescence was read on a PHERAstar luminometer (Cary, NC).
To determine the half-maximal effective concentration (EC50) values for WEE1-ePL degradation, a four parameter logistic model was used: (Sigmoidal Dose-Response Model) (FIT=(A+((B−A)/1+((C/x)^D)))) where C is the inflection point (EC50), D is the Hill slope, and A and B are the low and high limits of the fit respectively). The lower limit of the fit (value A) is referred to as Ymin. […] The maximum limit constraint, Ymax, is similarly derived using DMSO control. The curves were processed and evaluated using Activity Base (IDBS, Alameda, CA).

[1] = lower limit of the fit (0 = luciferase inhibitor, Ymax = DMSO control)
[2] = lower limit of the fit (Ymin=0 luciferase inhibitor, Ymax DMSO control)

Row | Structure (SMILES) | 293T-LentiX WEE1-ePL Degradation 4 hr (Ymin) [1] | 293T-LentiX WEE1-ePL Degradation 4 hr (Ymin) [2] | DC50 [nM]
1 | O=C1CCC(N2C(=O)c3ccc(O[C@@H]4CCN(Cc5cnc6ccccc6c5)C4)cc3C2=O)C(=O)N1 (stereo partly drawn) [2-(2,6-dioxopiperidin-3-yl)-5-{[(3R)-1-[(quinolin-3-yl)methyl]pyrrolidin-3-yl]oxy}-2,3-dihydro-1H-isoindole-1,3-dione] | 86.31 | – | –
2 | O=C1CCC(N2C(=O)c3ccc(O[C@@H]4CCN(Cc5ccnc6ccccc56)C4)cc3C2=O)C(=O)N1 (stereo partly drawn) [2-(2,6-dioxopiperidin-3-yl)-5-{[(3R)-1-[(quinolin-4-yl)methyl]pyrrolidin-3-yl]oxy}-2,3-dihydro-1H-isoindole-1,3-dione] | 90.1 | – | –
3 | O=C1CCC(N2C(=O)c3ccc(O[C@@H]4CCN(Cc5cccc6ncccc56)C4)cc3C2=O)C(=O)N1 (stereo partly drawn) [2-(2,6-dioxopiperidin-3-yl)-5-{[(3R)-1-[(quinolin-5-yl)methyl]pyrrolidin-3-yl]oxy}-2,3-dihydro-1H-isoindole-1,3-dione] | 89.045 | – | –
4 | O=C1CCC(N2C(=O)c3ccc(O[C@@H]4CCN(Cc5ccc6ncccc6c5)C4)cc3C2=O)C(=O)N1 (stereo partly drawn) [2-(2,6-dioxopiperidin-3-yl)-5-{[(3R)-1-[(quinolin-6-yl)methyl]pyrrolidin-3-yl]oxy}-2,3-dihydro-1H-isoindole-1,3-dione] | 83.71 | – | –
5 | O=C1CCC(N2Cc3cc(O[C@@H]4CCN(c5cnccn5)C4)ccc3C2=O)C(=O)N1 (stereo partly drawn) [3-(1-oxo-5-{[(3R)-1-(pyrazin-2-yl)pyrrolidin-3-yl]oxy}-2,3-dihydro-1H-isoindol-2-yl)piperidine-2,6-dione] | – | 110 | –
6 | O=C1CCC(N2Cc3cc(O[C@@H]4CCN(Cc5c[nH]c6ncccc56)C4)ccc3C2=O)C(=O)N1 (stereo partly drawn) [3-(1-oxo-5-{[(3R)-1-({1H-pyrrolo[2,3-b]pyridin-3-yl}methyl)pyrrolidin-3-yl]oxy}-2,3-dihydro-1H-isoindol-2-yl)piperidine-2,6-dione] | – | 87.61 | –
7 | O=C1CCC(N2Cc3cc(O[C@@H]4CCN(Cc5c[nH]c6cnccc56)C4)ccc3C2=O)C(=O)N1 (stereo partly drawn) [3-(1-oxo-5-{[(3R)-1-({1H-pyrrolo[2,3-c]pyridin-3-yl}methyl)pyrrolidin-3-yl]oxy}-2,3-dihydro-1H-isoindol-2-yl)piperidine-2,6-dione] | – | 93.39 | –
8 | O=C1CCC(N2Cc3cc(O[C@@H]4CCN(Cc5cnc6ccccc6c5)C4)ccc3C2=O)C(=O)N1 (stereo partly drawn) [3-(1-oxo-5-{[(3R)-1-[(quinolin-3-yl)methyl]pyrrolidin-3-yl]oxy}-2,3-dihydro-1H-isoindol-2-yl)piperidine-2,6-dione] | – | 83.91 | –
9 | O=C1CCC(N2Cc3cc(O[C@@H]4CCN(Cc5ccnc6ccccc56)C4)ccc3C2=O)C(=O)N1 (stereo partly drawn) [3-(1-oxo-5-{[(3R)-1-[(quinolin-4-yl)methyl]pyrrolidin-3-yl]oxy}-2,3-dihydro-1H-isoindol-2-yl)piperidine-2,6-dione] | – | 87.11 | –
10 | O=C1CCC(N2Cc3cc(O[C@@H]4CCN(Cc5cccc6ncccc56)C4)ccc3C2=O)C(=O)N1 (stereo partly drawn) [3-(1-oxo-5-{[(3R)-1-[(quinolin-5-yl)methyl]pyrrolidin-3-yl]oxy}-2,3-dihydro-1H-isoindol-2-yl)piperidine-2,6-dione] | – | 91.51 | –
11 | O=C1CCC(N2Cc3cc(O[C@@H]4CCN(Cc5ccc6ncccc6c5)C4)ccc3C2=O)C(=O)N1 (stereo partly drawn) [3-(1-oxo-5-{[(3R)-1-[(quinolin-6-yl)methyl]pyrrolidin-3-yl]oxy}-2,3-dihydro-1H-isoindol-2-yl)piperidine-2,6-dione] | – | 90.24 | –
12 | O=C1CCC(N2Cc3cc(O[C@H]4CCN(Cc5cccc6ncncc56)C4)ccc3C2=O)C(=O)N1 (stereo partly drawn) [3-(1-oxo-5-{[(3S)-1-[(quinazolin-5-yl)methyl]pyrrolidin-3-yl]oxy}-2,3-dihydro-1H-isoindol-2-yl)piperidine-2,6-dione] | 58.74 | – | 408
13 | O=C1CCC(N2Cc3cc(O[C@H]4CCN(Cc5cccc6nccnc56)C4)ccc3C2=O)C(=O)N1 (stereo partly drawn) [3-(1-oxo-5-{[(3S)-1-[(quinoxalin-5-yl)methyl]pyrrolidin-3-yl]oxy}-2,3-dihydro-1H-isoindol-2-yl)piperidine-2,6-dione] | 53.34 | – | 174
14 | O=C1CCC(N2Cc3ccc(O[C@@H]4CCN(Cc5cnc6ccccc6c5)C4)cc3C2=O)C(=O)N1 (stereo partly drawn) [3-(1-oxo-6-{[(3R)-1-[(quinolin-3-yl)methyl]pyrrolidin-3-yl]oxy}-2,3-dihydro-1H-isoindol-2-yl)piperidine-2,6-dione] | 89.42 | – | –
15 | Cc1nc(C)c(CN2CC[C@@H](Oc3ccc4c(c3)CN(C3CCC(=O)NC3=O)C4=O)C2)s1 (stereo partly drawn) [3-(5-{[(3R)-1-[(2,4-dimethyl-1,3-thiazol-5-yl)methyl]pyrrolidin-3-yl]oxy}-1-oxo-2,3-dihydro-1H-isoindol-2-yl)piperidine-2,6-dione] | – | 94.2 | –
16 | COC[C@@H]1CCC[C@@H](c2ccc3cc(CN4CC[C@H](Oc5ccc6c(c5)CN(C5CCC(=O)NC5=O)C6=O)C4)ccc3n2)C1 (stereo partly drawn) [3-(5-{[(3S)-1-({2-[(1R,3R)-3-(methoxymethyl)cyclohexyl]quinolin-6-yl}methyl)pyrrolidin-3-yl]oxy}-1-oxo-2,3-dihydro-1H-isoindol-2-yl)piperidine-2,6-dione] | – | 26.54 | 2.17
17 | COC[C@H]1CCC[C@@H](c2ccc3cc(CN4CC[C@H](Oc5ccc6c(c5)CN(C5CCC(=O)NC5=O)C6=O)C4)ccc3n2)C1 (stereo partly drawn) [3-(5-{[(3S)-1-({2-[(1R,3S)-3-(methoxymethyl)cyclohexyl]quinolin-6-yl}methyl)pyrrolidin-3-yl]oxy}-1-oxo-2,3-dihydro-1H-isoindol-2-yl)piperidine-2,6-dione] | – | 26.32 | 1.82
18 | Nc1cccc(COc2ccccc2CN2CC[C@H](Oc3ccc4c(c3)CN(C3CCC(=O)NC3=O)C4=O)C2)c1 (stereo partly drawn) [3-(5-{[(3S)-1-({2-[(3-aminophenyl)methoxy]phenyl}methyl)pyrrolidin-3-yl]oxy}-1-oxo-2,3-dihydro-1H-isoindol-2-yl)piperidine-2,6-dione] | 92.17 | – | –
19 | Nc1cccc(COc2cccc(CN3CC[C@H](Oc4ccc5c(c4)CN(C4CCC(=O)NC4=O)C5=O)C3)c2)c1 (stereo partly drawn) [3-(5-{[(3S)-1-({3-[(3-aminophenyl)methoxy]phenyl}methyl)pyrrolidin-3-yl]oxy}-1-oxo-2,3-dihydro-1H-isoindol-2-yl)piperidine-2,6-dione] | 78.15 | – | 818
20 | O=C1CCC(N2Cc3cc(O[C@H]4CCN(Cc5cccc6nccn56)C4)ccc3C2=O)C(=O)N1 (stereo partly drawn) [3-(5-{[(3S)-1-({imidazo[1,2-a]pyridin-5-yl}methyl)pyrrolidin-3-yl]oxy}-1-oxo-2,3-dihydro-1H-isoindol-2-yl)piperidine-2,6-dione] | 57.26 | – | 183
21 | O=C1CCC(N2Cc3cc(O[C@H]4CCN(Cc5ccc6cnccc6n5)C4)ccc3C2=O)C(=O)N1 (stereo partly drawn) [3-(5-{[(3S)-1-[(1,6-naphthyridin-2-yl)methyl]pyrrolidin-3-yl]oxy}-1-oxo-2,3-dihydro-1H-isoindol-2-yl)piperidine-2,6-dione] | 42.7 | – | 109
22 | O=C1CCC(N2Cc3cc(O[C@H]4CCN(Cc5ccnc6ncccc56)C4)ccc3C2=O)C(=O)N1 (stereo partly drawn) [3-(5-{[(3S)-1-[(1,8-naphthyridin-4-yl)methyl]pyrrolidin-3-yl]oxy}-1-oxo-2,3-dihydro-1H-isoindol-2-yl)piperidine-2,6-dione] | 96.5 | – | –
23 | Cc1nccc(CN2CC[C@H](Oc3ccc4c(c3)CN(C3CCC(=O)NC3=O)C4=O)C2)c1C (stereo partly drawn) [3-(5-{[(3S)-1-[(2,3-dimethylpyridin-4-yl)methyl]pyrrolidin-3-yl]oxy}-1-oxo-2,3-dihydro-1H-isoindol-2-yl)piperidine-2,6-dione] | 43.42 | – | 54.5
24 | COc1nc2ccccc2cc1CN1CC[C@H](Oc2ccc3c(c2)CN(C2CCC(=O)NC2=O)C3=O)C1 (stereo partly drawn) [3-(5-{[(3S)-1-[(2-methoxyquinolin-3-yl)methyl]pyrrolidin-3-yl]oxy}-1-oxo-2,3-dihydro-1H-isoindol-2-yl)piperidine-2,6-dione] | 45.09 | – | 18.3
25 | NCc1ccccc1COc1ccccc1CN1CC[C@H](Oc2ccc3c(c2)CN(C2CCC(=O)NC2=O)C3=O)C1 (stereo partly drawn) [3-(5-{[(3S)-1-[(2-{[2-(aminomethyl)phenyl]methoxy}phenyl)methyl]pyrrolidin-3-yl]oxy}-1-oxo-2,3-dihydro-1H-isoindol-2-yl)piperidine-2,6-dione] | 89.91 | – | –
